Data set [1] is described as follows: Dissolving rate (time until solution is clear) of succinic acid and succinic acid-NaHCO3 adduct. The format is physicochemical. As to conditions: for Time until solution is clear: three runs. Here is the method:
This solution is stirred and heated briefly until all the solids have dissolved. Then the solution is dried to constant weight (for approximately 48 hours) at approximately 105° C. in a drying oven. The product, which forms amorphous crystals, is homogenized in a mortar.

For data set [2] the following is noted: for pH of finished solution: 1st-3rd test. The source says: This concentrate was then mixed with a 1 molar sodium bi-carbonate solution and diluted with the stated amount of water.
[3] abbreviates: 12.98 g/L, 0.11 mol/l, concentrate 0.22 meq/L.
Where [4] appears, read: 19.47 g/L, 0.165 mol/l, concentrate 0.33 meq/L.
Where [5] appears, read: 25.96 g/L, 0.22 mol/L, concentrate 0.44 meq/L.
The mark [6] stands for this setting: 38.94 g/L, 0.33 mol/L, concentrate 0.66 meq/L.
Where [7] appears, read: 58.11 g/L, 0.495 mol/L, concentrate 0.99 meq/L.

Values joined by “and” are separate entries in the source; they are usually repeats but may differ in a detail not shown here. Equal values may be shown once. Read-outs that look alike come from different tables or passages of the source. Bounds are passed on as bounds.

Regarding `O=C(O)CCC(=O)O` [succinic acid], the “Time until solution is clear, Average” value is listed as 210 in data set [1] (setting [3]); 250 in data set [1] (setting [4]); 358 in data set [1] (setting [5]); 460 in data set [1] (setting [6]); greater than 900 in data set [1] (setting [7]). Further, the “Time until solution is clear” value was 200 and 210 and 220 in data set [1] (setting [3]); 230 and 250 and 270 in data set [1] (setting [4]); 400 and 375 and 300 in data set [1] (setting [5]); 510 and 420 and 450 in data set [1] (setting [6]); 900 and >1080 and 960 in data set [1] (setting [7]). For the same compound, the dissolution rate entry in data set [1] (in water, in words) is listed as “very low”. Besides, the “pH of finished solution” value in data set [2] (35 mL 1 molar NaHCO3, 951 mL water, 14 mL 0.15 molar succinic acid) is 7.08 and 7.09; in data set [2] (35 mL 1 molar NaHCO3, 953 mL water, 12 mL 0.15 molar succinic acid) it was 7.16 and 7.17; in data set [2] (35 mL 1 molar NaHCO3, 955 mL water, 10 mL 0.15 molar succinic acid) it was 7.26 and 7.27; in data set [2] (35 mL 1 molar NaHCO3, 957 mL water, 8 mL 0.15 molar succinic acid), 7.42 and 7.39 and 7.41; in data set [2] (40 mL 1 molar NaHCO3, 946 mL water, 14 mL 0.15 molar succinic acid) it was 7.14 and 7.16 and 7.19; in data set [2] (40 mL 1 molar NaHCO3, 948 mL water, 12 mL 0.15 molar succinic acid), 7.24 and 7.25. Also, the “pH of finished solution” value in data set [2] (40 mL 1 molar NaHCO3, 950 mL water, 10 mL 0.15 molar succinic acid) is 7.34 and 7.35 and 7.32; in data set [2] (40 mL 1 molar NaHCO3, 952 mL water, 8 mL 0.15 molar succinic acid), 7.46 and 7.47 and 7.48. Also, the “concentration sufficient to adjust a physiological pH” value in data set [2] (in terms of the finished ready-to-use solution, relatively high sodium bicarbonate concentration) was determined as 1.5 mmol/L.
